Test results published in patent US20100255086A1, “Method for oral mucosal absorption of acetyl salycylic acid” (priority 2009, published 2010).

How the values were obtained:
[1] = cited from earlier work
[2] = long-term treatment; cited from earlier work
[3] = cited from earlier work; remark: listed apart in the source

Buccal absorption (normal buccal pH, no buffer added): 5%
absorbed (buccal) (pH of 2.5, buffer solution added): 70%
SMILES: CC(=O)Oc1ccccc1C(=O)O [aspirin, acetyl salicylic acid]
solubility in water [1]: does not dissolve in water
severe gastrointestinal complication [2]: up to 30%
acetyl salicylic acid reaching the stomach inactivated through deacetylation [3]: At least thirty two
